This assay relates to RAMP-CLR complexes (RAMP1, RAMP2, RAMP3). The assay can be described thus: (Ca^2+)i mobilization with inhibitor pretreatment, HEK-293 cells, all RAMP-CLR complexes. It counts as cell-based, human. Conditions: 100 nM YM-254890, 30 min pretreatment. The procedure: FIGURE 8. CLR in combination with each RAMP generates receptors that mobilize (Ca^2+)i release when expressed in HEK-293 cells. (Ca^2+)i mobilization was determined from HEK-293 cells transiently transfected with CLR and RAMP1 (n = 5) (A), RAMP2 (n = 5) (B), and RAMP3 (n = 5) (C). […] Data are expressed as percentage of the maximal (Ca^2+)i release as determined using 10 μM ionomycin. To determine the contribution made by different G proteins to the (Ca^2+)i response, cells were preincubated with either PTX (to inhibit Gαi) or YM-254890 (a selective Gαq inhibitor). All values are means ± S.E. of n individual data sets.
HEK-293 cells, provided by Dr. Jügen Müller (University of Aston), were cultured in DMEM supplemented with 10% heat-inactivated FBS and kept at 37 °C in a humidified 95% air, 5% CO2 incubator. HEK-293S cells (a gift from AstraZeneca) were cultured in DMEM supplemented with 8% heat-inactivated FBS and kept at 37 °C in a humidified 95% air, 5% CO2 incubator. HEK-293 cells were transfected with FuGENE 6 (Roche Applied Science) in accordance with the manufacturer's instructions using a 1:3 (w:v) DNA:FuGENE ratio and a 1:1 ratio of RAMP to CLR. HEK-293S cells were seeded into 96-well poly-D-lysine-coated plates at a density of 15,000 cells/well (determined using a Countess^TM cell counter, Invitrogen) 1 day prior to transfection. HEK-293S cells were transiently transfected as described previously ([38]) using a 1:1 ratio of RAMP to CLR. The transfected cell lines were grown for 24–48 h prior to assaying.
Transfected HEK-293 cells were grown to confluence in black, clear bottomed, 96-well plates. […] Ligands were added robotically using a Mithras LB 940 multimode microplate reader in the range of 10 pM to 1 μM, and fluorescence was determined immediately post-injection with an excitation wavelength set to 485 nm and an emission wavelength set to 535 nm. […] Peak magnitude was calculated using five-point smoothing followed by correction against background fluorescence. […]

Consider YM-254890, for which the “effect of YM-254890 on (Ca^2+)i mobilization by AM and AM2” value (HEK-293, all RAMP-CLR complexes) is “abolish all (Ca^2+)i mobilization”. The “effect of YM-254890 on response to CGRP” value (HEK-293, all three RAMP-CLR complexes) was “considerably attenuated”.
